Assay results published in ChEMBL document CHEMBL3853353, “Identification and optimization of a new series of anti-tubercular quinazolinones” (Bioorg Med Chem Lett, 2016).
In brackets after ≈: the same amount, converted by molar mass.

What was measured:
[1] = tested on: Mycobacterium tuberculosis; assay: Antimycobacterial activity against Mycobacterium tuberculosis H37Rv incubated for 5 days by Bactiter-Glo assay; type: functional; conditions: 120 h
[2] = Cytotoxicity against human HepG2 cells assessed as reduction in cell viability after 40 hrs by Celltiter-Glo assay; conditions: HepG2 cells
[3] = Lipophilicity, log P of compound; conditions: octanol/water
[4] = tested on: Mycobacterium tuberculosis; assay: Antimycobacterial activity against Mycobacterium tuberculosis H37Rv incubated for 5 days in presence of 25% human serum by Bactiter-Glo assay; type: functional; conditions: 120 h
[5] = tested on: Mycobacterium tuberculosis; assay: Antimycobacterial activity against GFP-tagged Mycobacterium tuberculosis H37Rv infected in mouse RAW264.7 cells incubated for 4 days by Mask blue/Hoechst/FITC staining based fluorescence microscopic analysis; type: functional; conditions: 96 h
[6] = Aqueous equilibrium solubility of compound in pH 1 solution at 20 degC; conditions: aqueous pH 1 solution
[7] = Aqueous equilibrium solubility of compound in pH 7.4 solution at 20 degC; conditions: aqueous pH 7.4 solution
[8] = tested on: Mycobacterium tuberculosis; assay: Antimycobacterial activity against Mycobacterium tuberculosis H37Rv incubated for 5 days in presence of 25% mouse serum by Bactiter-Glo assay; type: functional; conditions: 120 h
[9] = tested on: Mycobacterium tuberculosis; assay: Ratio of MIC80 for Mycobacterium tuberculosis H37Rv in presence of 25% human serum to MIC80 for Mycobacterium tuberculosis H37Rv; type: functional
[10] = Protein binding in human plasma at 1 to 10 uM after 4 hrs by LC-MS/MS analysis; type: ADME, cell-free; conditions: read-out: PPB (converted)
[11] = Protein binding in Swiss mouse plasma at 1 to 10 uM after 4 hrs by LC-MS/MS analysis; type: ADME, cell-free; conditions: read-out: PPB (converted)
[12] = Permeability in human Caco2 cells; conditions: caco-2
[13] = biological target: T1, Cytochrome P450 3A4 (Homo sapiens, UniProt P08684); assay: Inhibition of CYP3A4 in human liver microsomes assessed as 6-beta-hydroxytestosterone metabolite formation using testosterone as substrate incubated for 30 mins by HPLC-MS method
[14] = biological target: T1, Cytochrome P450 3A4; assay: Inhibition of CYP3A4 in human liver microsomes assessed as 1'-hydroxymidazolam metabolite formation using midazolam as substrate incubated for 10 mins by HPLC-MS method
[15] = AUC in Balb/c mouse plasma infected with Mycobacterium tuberculosis H37Rv at 100 mg/kg, po administered through gavage as 90%/10% PEG200/vitamin -E TPGS formulation; type: ADME, organism-based
[16] = Solubility in 90%/10% PEG200/vitamin -E TPGS solution; type: physicochemical
[17] = Oral bioavailability in Swiss mouse at 100 mg/kg administered as single dose through gavage as 90%/10% PEG200/vitamin -E TPGS formulation after 24 hrs; type: ADME, organism-based; conditions: in vivo
[18] = Ratio of drug level in Mycobacterium tuberculosis H37Rv infected Balb/c mouse lung to plasma at 100 mg/kg, po administered through gavage as 90%/10% PEG200/vitamin -E TPGS formulation; type: ADME, organism-based; conditions: lung and plasma
[19] = Half life in Balb/c mouse infected with Mycobacterium tuberculosis H37Rv at 100 mg/kg, po administered through gavage as 90%/10% PEG200/vitamin -E TPGS formulation; type: ADME, organism-based; conditions: in vivo
[20] = Time at which plasma concentration stays above invitro MIC80 in presence of mouse serum in Balb/c mouse infected with Mycobacterium tuberculosis H37Rv at 100 mg/kg, po administered through gavage as 90%/10% PEG200/vitamin -E TPGS formulation; type: ADME, organism-based; conditions: in vivo
[21] = Time at which lung concentration stays above invitro MIC80 in presence of mouse serum in Balb/c mouse infected with Mycobacterium tuberculosis H37Rv at 100 mg/kg, po administered through gavage as 90%/10% PEG200/vitamin -E TPGS formulation; type: ADME, organism-based; conditions: in vivo
[22] = tested on: Mycobacterium tuberculosis; assay: Antimycobacterial activity against Mycobacterium tuberculosis H37Rv infected in Balb/c mouse assessed as bacterial burden in lungs at 12.5 mg/kg, po administered daily through gavage starting on day 2 post infection for 4 days per week for 2 weeks as Vitamin-E/PEG200 formulation each 4 days dosing followed by 2 days compound washout measured on day 12 post infection (reference value: 8 log10CFU); type: functional, Lung
[23] = tested on: Mycobacterium tuberculosis; assay: Antimycobacterial activity against Mycobacterium tuberculosis H37Rv infected in Balb/c mouse assessed as bacterial burden in lungs at 25 mg/kg, po administered daily through gavage starting on day 2 post infection for 4 days per week for 2 weeks as Vitamin-E/PEG200 formulation each 4 days dosing followed by 2 days compound washout measured on day 12 post infection (reference value: 8 log10CFU); type: functional, Lung
[24] = tested on: Mycobacterium tuberculosis; assay: Antimycobacterial activity against Mycobacterium tuberculosis H37Rv infected in Balb/c mouse assessed as bacterial burden in lungs at 50 mg/kg, po administered daily through gavage starting on day 2 post infection for 4 days per week for 2 weeks as Vitamin-E/PEG200 formulation each 4 days dosing followed by 2 days compound washout measured on day 12 post infection (reference value: 8 log10CFU); type: functional, Lung
[25] = tested on: Mycobacterium tuberculosis; assay: Antimycobacterial activity against Mycobacterium tuberculosis H37Rv infected in Balb/c mouse assessed as bacterial burden in lungs at 100 mg/kg, po administered daily through gavage starting on day 2 post infection for 4 days per week for 2 weeks as Vitamin-E/PEG200 formulation each 4 days dosing followed by 2 days compound washout measured on day 12 post infection (reference value: 8 log10CFU); type: functional, Lung
[26] = tested on: Mycobacterium tuberculosis; assay: Antimycobacterial activity against Mycobacterium tuberculosis H37Rv infected in Balb/c mouse assessed as bacterial burden in lungs at 200 mg/kg, po administered daily through gavage starting on day 2 post infection for 4 days per week for 2 weeks as Vitamin-E/PEG200 formulation each 4 days dosing followed by 2 days compound washout measured on day 12 post infection (reference value: 8 log10CFU); type: functional, Lung
[27] = tested on: Mycobacterium tuberculosis; assay: Antimycobacterial activity against Mycobacterium tuberculosis H37Rv infected in po dosed Balb/c mouse assessed as reduction in bacterial burden in lungs administered daily through gavage starting on day 2 post infection for 8 consecutive days; type: functional; conditions: Lung, 48 h, read-out: MED
[28] = tested on: Mycobacterium tuberculosis; assay: Antimycobacterial activity against Mycobacterium tuberculosis H37Rv in 1000 bacteria inoculated agar plate; type: functional
[29] = tested on: Mycobacterium tuberculosis; assay: Antimycobacterial activity against Mycobacterium tuberculosis H37Rv in 100000 bacteria inoculated agar plate; type: functional
[30] = tested on: Mycobacterium tuberculosis; assay: Antimycobacterial activity against Mycobacterium tuberculosis H37Rv infected in Balb/c mouse assessed as bacterial burden in lungs at 10 to 300 mg/kg administered daily through gavage starting on day 2 post infection for 8 consecutive days; type: functional, Lung
[31] = tested on: Mycobacterium tuberculosis; assay: Antimycobacterial activity against Mycobacterium tuberculosis H37Rv infected in Balb/c mouse assessed as bacterial burden in lungs at 10 to 300 mg/kg administered daily through gavage for 4 days separated by 2 days drug wash out followed by second 4 days drug treatment; type: functional, Lung

T1 sequence (P08684 whole entry): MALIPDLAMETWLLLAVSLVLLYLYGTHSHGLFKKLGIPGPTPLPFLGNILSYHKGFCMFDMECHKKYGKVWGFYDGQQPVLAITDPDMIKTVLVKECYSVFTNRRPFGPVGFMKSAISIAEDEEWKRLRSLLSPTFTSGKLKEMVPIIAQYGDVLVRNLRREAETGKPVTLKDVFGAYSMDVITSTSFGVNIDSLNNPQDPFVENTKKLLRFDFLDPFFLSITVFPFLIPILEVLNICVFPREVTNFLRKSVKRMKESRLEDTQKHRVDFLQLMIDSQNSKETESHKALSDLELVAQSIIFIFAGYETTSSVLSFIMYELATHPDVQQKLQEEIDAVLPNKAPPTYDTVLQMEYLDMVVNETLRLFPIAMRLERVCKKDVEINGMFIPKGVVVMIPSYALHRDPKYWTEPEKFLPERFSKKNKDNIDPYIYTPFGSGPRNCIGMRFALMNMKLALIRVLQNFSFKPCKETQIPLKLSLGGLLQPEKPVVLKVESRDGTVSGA

In the case of Cn1c(NCCc2ccc(-c3ccc(F)cc3)cc2)nc2cc(Cl)ccc2c1=O, the MIC80 [1] is reported as 0.003 µM (≈ 0.00122 µg/mL), the IC50 at 40 h [2] is reported as 22 µM and the logP [3] is reported as 5.28. The MIC80 [4] was 0.025 µM, the MIC80 [5] was 0.06 µM (≈ 0.0245 µg/mL) and the solubility thermodynamic [6] was under 0.001 mg/mL. The solubility thermodynamic [7] was under 0.001 mg/mL, the MIC80 [8] was 0.034 µM and the Ratio [9] was 8. The fraction unbound at 4 h [10] was 0.001, the fraction unbound at 4 h [11] was 0.001 and the permeability [12] was “Permeable”. The IC50 [13] was 18 µM, the IC50 [14] was over 30 µM and the AUC [15] was 76000 ng·h/mL. The solubility [16] was 20 mg/mL (≈ 49000 µM), the bioavailability [17] was 73% and the Kp [18] was 14. It also gave a half-life [19] of 8 h, a Time [20] of over 24 h and a Time [21] of over 24 h. It also gave an Activity [22] of 7.7 log10CFU, an Activity [23] of 7.6 log10CFU and an Activity [24] of 7.4 log10CFU. It also gave an Activity [25] of 7.6 log10CFU, an Activity [26] of 7.6 log10CFU and a minimal effective dose [27] of 300 mg/kg. The MIC [28] was 0.016 µg/mL (≈ 0.0392 µM), the MIC [29] was 2 µg/mL (≈ 4.9 µM) and the Activity [30] was 0.78 log10CFU. The Activity [31] was 1.5 log10CFU.
